Assay [1] can be described thus: Inhibition of Alpha-glucosidase activity.
Assay [2] is described as follows: Compound was evaluated for binding affinity towards Alpha-glucosidase analyzed by the surface plasma resonance (SPR) method.
Assay [3] is described as follows: Compound was tested for the inhibition of Alpha-glucosidase.
Assay [4] in a line: Inhibitory effect on Alpha-glucosidase activity.

pIC50: −log10 of the molar value. Where only a bound is given, the exact number is not on record here.

Consider `Nc1cccc2c1C(=O)N(c1ccccc1)C2=O`, for which the pIC50 (in general, the IC50 on a negative log10 scale, so that one unit is a factor of ten) in assay [1] is less than 3.30.
Consider `O=C1c2ccccc2C(=O)N1Cc1ccccc1`, for which the pIC50 in assay [1] is less than 3.30.
The compound `O=C1c2c(Cl)c(Cl)c(Cl)c(Cl)c2C(=O)N1CCCCCc1ccccc1` showed a pIC50 in assay [1] of 5.46. In assay [2], this compound returned a Ka of 15000 M⁻¹.
For `O=C1c2ccc(O)cc2C(=O)N1c1ccccc1`, the pIC50 in assay [1] was less than 3.30.
For the compound `O=C1c2ccccc2C(=O)N1c1ccccc1` [N-PHENYL-PHTHALIMIDE], the pIC50 in assay [1] is less than 3.30.
Turning to `O=C1c2c(Cl)c(Cl)c(Cl)c(Cl)c2C(=O)N1CCCc1ccccc1`, in assay [1], the negative-log IC50 (pIC50) is 5.35. In assay [2], this compound had a Ka of 33000 M⁻¹.
For the compound `O=C1c2ccccc2C(=O)N1CCc1ccccc1`, the negative logarithm of the IC50 (pIC50) in assay [1] is less than 3.30.
Consider `O=C1c2c(Cl)c(Cl)c(Cl)c(Cl)c2C(=O)N1CCCCc1ccccc1`, for which, in assay [2], the Ka was found to be 22000 M⁻¹. The compound further showed a negative logarithm of the IC50 (pIC50) in assay [3] of 5.70.
In turn, `O=C1c2ccc([N+](=O)[O-])cc2C(=O)N1c1ccccc1` had a negative-log IC50 (pIC50) in assay [1] of 4.63.
Consider `O=C1c2c(Cl)c(Cl)c(Cl)c(Cl)c2C(=O)N1CCCCCCc1ccccc1`, for which the pIC50 in assay [1] was 5.15.
Turning to `O=C1c2c(Cl)c(Cl)c(Cl)c(Cl)c2C(=O)N1Cc1ccccc1`, the negative-log IC50 (pIC50) in assay [1] was 4.96. The compound further gave a Ka in assay [2] of 15000 M⁻¹.
`O=C1c2cccc([N+](=O)[O-])c2C(=O)N1c1ccccc1` gave a pIC50 in assay [1] of 4.59.
In assay [1], `O=C1c2ccccc2C(=O)N1CCCc1ccccc1` gave a pIC50 of less than 3.30.
Consider `O=C1c2c(Cl)c(Cl)c(Cl)c(Cl)c2C(=O)N1c1ccccc1`, for which the pIC50 in assay [1] was 5.59; in assay [4], 4.75. The Ka in assay [2] was found to be 140000 M⁻¹.
Take `OC[C@H]1NC[C@H](O)[C@@H](O)[C@@H]1O` [DUVOGLUSTAT]: in assay [1], the negative logarithm of the IC50 (pIC50) is 4.32. In assay [2], the Ka was found to be 210000 M⁻¹.
In the case of `Nc1ccc2c(c1)C(=O)N(c1ccccc1)C2=O`, the negative-log IC50 (pIC50) in assay [1] was less than 3.30.
The same measure, in the same setting: then `O=C1c2cccc(O)c2C(=O)N1c1ccccc1`, with less than 3.30.
Compound `O=C1c2c(Cl)c(Cl)c(Cl)c(Cl)c2C(=O)N1CCc1ccccc1` showed a pIC50 in assay [1] of 5.22. In assay [2], this compound yielded a Ka of 25000 M⁻¹.

These data come from ChEMBL document CHEMBL1132877, “Novel alpha-glucosidase inhibitors with a tetrachlorophthalimide skeleton” (Bioorg Med Chem Lett, 2000).
